According to PubChem BioAssay AID1963965 (Molecular Pharmacology Branch, DTP, NCI, 2024):

Test system: 996289-038-R-J1-PDC spheroid viability
Test: Anticancer human tumor 996289-038-R-J1-PDC patient-derived colon adenocarcinoma cell line growth inhibition [PI3K]
Conditions: spheroids with HUVEC and MSC; for IC50: curve of first compound; for viability, T/C: stronger effect = lower value; active means viability on the fitted dose curve at most 10% of control; inactive means the rest
In short: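 Targeted small molecules plus PI3K inhibitors, half-log dose series from Cmax (default top 10 microM), were applied to heterotypic spheroids of cancer cells with HUVEC and MSCs. Viability indicated growth inhibition.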
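Further: spheroids exposed to compounds for seven days before viability read.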
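Wherever viability, T/C is given: luminescence used as a proxy for viable cell amount; percent viability relative to DMSO vehicle control as 100%.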

Cn1cnc2c(F)c(Nc3ccc(Br)cc3Cl)c(C(=O)NOCCO)cc21 + COc1c(OCCCN2CCOCC2)ccc2c3n(c(=NC(=O)c4cnc(N)nc4)nc12)CCN3
inactive: viability, T/C (second compound 0.00316 µM, first compound 0.00949 µM) 85.8% | viability, T/C (second compound 0.00316 µM, first compound 0.03 µM) 64.4% | viability, T/C (second compound 0.00316 µM, first compound 0.0949 µM) 62.2% | viability, T/C (second compound 0.00316 µM, first compound 0.3 µM) 38.7% | viability, T/C (second compound 0.00316 µM, first compound 0.949 µM) 28.2% | viability, T/C (second compound 0.00316 µM, first compound 3 µM) 20.1% | viability, T/C (second compound 0.01 µM, first compound 0.00949 µM) 79.3% | viability, T/C (second compound 0.01 µM, first compound 0.03 µM) 65.1% | viability, T/C (second compound 0.01 µM, first compound 0.0949 µM) 45.5% | viability, T/C (second compound 0.01 µM, first compound 0.3 µM) 29.7% | viability, T/C (second compound 0.01 µM, first compound 0.949 µM) 28.5% | viability, T/C (second compound 0.01 µM, first compound 3 µM) 16.8% | viability, T/C (second compound 0.0316 µM, first compound 0.00949 µM) 71.3% | viability, T/C (second compound 0.0316 µM, first compound 0.03 µM) 59.1% | viability, T/C (second compound 0.0316 µM, first compound 0.0949 µM) 38.2% | viability, T/C (second compound 0.0316 µM, first compound 0.3 µM) 28.8% | viability, T/C (second compound 0.0316 µM, first compound 0.949 µM) 19.2% | viability, T/C (second compound 0.0316 µM, first compound 3 µM) 12.5% | viability, T/C (second compound 0.1 µM, first compound 0.00949 µM) 54.1% | viability, T/C (second compound 0.1 µM, first compound 0.03 µM) 39.2% | viability, T/C (second compound 0.1 µM, first compound 0.0949 µM) 27.6% | viability, T/C (second compound 0.1 µM, first compound 0.3 µM) 18.6% | viability, T/C (second compound 0.1 µM, first compound 0.949 µM) 12.5% | viability, T/C (second compound 0.316 µM, first compound 0.00949 µM) 34.1% | viability, T/C (second compound 0.316 µM, first compound 0.03 µM) 24.5% | viability, T/C (second compound 0.316 µM, first compound 0.0949 µM) 15.1% | viability, T/C (second compound 0.316 µM, first compound 0.3 µM) 10.6% | viability, T/C (second compound 1 µM, first compound 0.00949 µM) 15.6% | viability, T/C (second compound 1 µM, first compound 0.03 µM) 14.3%
active: viability, T/C (second compound 0.1 µM, first compound 3 µM) 5.57% | viability, T/C (second compound 0.316 µM, first compound 0.949 µM) 6.3% | viability, T/C (second compound 0.316 µM, first compound 3 µM) 4.03% | viability, T/C (second compound 1 µM, first compound 0.0949 µM) 9.32% | viability, T/C (second compound 1 µM, first compound 0.3 µM) 5.03% | viability, T/C (second compound 1 µM, first compound 0.949 µM) 4.84% | viability, T/C (second compound 1 µM, first compound 3 µM) 2.93%
74 nM: IC50 (second compound 0.01 µM)
147 nM: IC50 (second compound 0.00316 µM)
49.6 nM: IC50 (second compound 0.0316 µM)
< 9.49 nM: IC50 (second compound 0.316 µM) | IC50 (second compound 1 µM)
12.7 nM: IC50 (second compound 0.1 µM)
